Measured values reported in patent US5840684A, “Glycopeptide antibiotic derivatives” (Eli Lilly and Company, priority 1995, dated 1998).
≈ marks a conversion by molar mass, not a printed value.

Columns and labels:
[1] = tested on: Entercoccus faecium 180-1; experiment: broth micro-dilution MIC; type: cell-based
Experimental: (§1) The MIC's were determined using a standard broth micro-dilution assay.

Entercoccus faecium 276 = experiment: broth micro-dilution MIC; type: cell-based
Experimental: as §1

[2] = tested on: Staphylococcus aureus 489; experiment: broth micro-dilution MIC; type: cell-based
Experimental: as §1

[3] = tested on: Staphylococcus aureus 491; experiment: broth micro-dilution MIC; type: cell-based
Experimental: as §1

[4] = tested on: Staphylococcus aureus SA1199A; experiment: broth micro-dilution MIC; type: cell-based
Experimental: as §1

[5] = tested on: Staphylococcus aureus X400; experiment: broth micro-dilution MIC; type: cell-based
Experimental: as §1

[6] = tested on: Staphylococcus aureus X778; experiment: broth micro-dilution MIC; type: cell-based
Experimental: as §1

[7] = tested on: Streptococcus pyogenes C203; experiment: broth micro-dilution MIC; type: cell-based
Experimental: as §1

Entercoccus faecium 180 = experiment: broth micro-dilution MIC; type: cell-based; details: Entercoccus faecium 180
Experimental: (§2) The formula I compounds have in vitro and in vivo activity against Gram-positive pathogenic bacteria. The MIC's were determined using a standard broth micro-dilution assay.

Entercoccus faecium 2041 = experiment: broth micro-dilution MIC; type: cell-based; details: Entercoccus faecium 2041
Experimental: as §2

[8] = tested on: Enterococcus gallinarum 245; experiment: broth micro-dilution MIC; type: cell-based; details: Enterococcus gallinarum 245
Experimental: as §2

[9] = tested on: Staphylococcus epidermidis 270; experiment: broth micro-dilution MIC; type: cell-based
Experimental: as §2

Stapylococcus aureus = experiment: mouse protection, experimentally-induced infection; type: in vivo; details: mice infected with Stapylococcus aureus, two doses
Streptococcus pyogenes = experiment: mouse protection, experimentally-induced infection; type: in vivo; details: mice infected with Streptococcus pyogenes, two doses
Streptococcus pneumoniae = experiment: mouse protection, experimentally-induced infection; type: in vivo; details: mice infected with Streptococcus pneumoniae, two doses
[10] = tested on: vancomycin-resistant enterococci; experiment: broth micro-dilution, mean geometric MIC; type: cell-based, Enterococcus faecium and Enterococcus faecalis; details: enterococci, 24-hour incubation
[11] = tested on: vancomycin-susceptible enterococci; experiment: broth micro-dilution, mean geometric MIC; type: cell-based, Enterococcus faecium and Enterococcus faecalis; details: enterococci, 24-hour incubation
[12] = tested on: Staphylococcus aureus SA1199B; type: cell-based
Experimental: as §1

[13] = tested on: Staphylococcus aureus 446; experiment: broth micro-dilution MIC; type: cell-based
Experimental: as §1

[14] = tested on: Staphylococcus aureus 447; experiment: broth micro-dilution MIC; type: cell-based
Experimental: as §1

[15] = tested on: Staphylococcus haemolyticus 105; experiment: broth micro-dilution MIC; type: cell-based
Experimental: as §2

[16] = tested on: Staphylococcus haemolyticus 415; experiment: broth micro-dilution MIC; type: cell-based
Experimental: as §2

[17] = tested on: Streptococcus pneumoniae P1; experiment: broth micro-dilution MIC; type: cell-based
Experimental: as §2

[18] = tested on: Staphylococcus aureus S13E; type: cell-based
Experimental: as §1

[19] = tested on: Staphylococcus aureus SA1199; experiment: broth micro-dilution MIC; type: cell-based
Experimental: as §1

| Compound | MIC [1] | MIC (Entercoccus faecium 276) | MIC [2] | MIC [3] | MIC [4] | MIC [6] | MIC [7] | MIC (Entercoccus faecium 180) | MIC (Entercoccus faecium 2041) | MIC [8] | MIC [9] | ED50 (Stapylococcus aureus) | ED50 (Streptococcus pyogenes) | ED50 (Streptococcus pneumoniae) | mean geometric MIC, Vancomycin Resistant Strains [10] | mean geometric MIC, Vancomycin Sensitive Strains [11] | MIC [14] | MIC [15] | MIC [16] | MIC [17] | other results |
| --- | --- | --- | --- | --- | --- | --- | --- | --- | --- | --- | --- | --- | --- | --- | --- | --- | --- | --- | --- | --- | --- |
| CCCCCc1ccc(-c2ccc(CNC3(C)CC(OC4C(Oc5c6cc7cc5Oc5ccc(cc5Cl)C(OC5CC(C)(N)C(O)C(C)O5)C5NC(=O)C(NC(=O)C7NC(=O)C(CC(N)=O)NC(=O)C(NC(=O)C(CC(C)C)NC)C(O)c7ccc(c(Cl)c7)O6)c6ccc(O)c(c6)-c6c(O)cc(O)cc6C(C(=O)O)NC5=O)OC(CO)C(O)C4O)OC(C)C3O)cc2)cc1 (stereo not drawn) [Compound 22] | ≤ 0.06 µg/mL | 4 µg/mL (≈ 2.19 µM) | 8 µg/mL (≈ 4.37 µM) | 8 µg/mL (≈ 4.37 µM) | 4 µg/mL (≈ 2.19 µM) | 8 µg/mL (≈ 4.37 µM) | ≤ 0.06 µg/mL | 1 µg/mL (≈ 0.547 µM) | 2 µg/mL (≈ 1.09 µM) | 1 µg/mL (≈ 0.547 µM) | 4 µg/mL (≈ 2.19 µM) | 0.049 mg/kg/2 | > 0.5 mg/kg/2 | > .05 mg/kg/2 | 1.0 µg/mL | 1.5 µg/mL | – | – | – | – | MIC [5]: 8 µg/mL (≈ 4.37 µM) |
| CN[C@@H](CC(C)C)C(=O)N[C@H]1C(=O)N[C@H](CC(N)=O)C(=O)N[C@H]2C(=O)N[C@H]3C(=O)N[C@@H](C(=O)NC(C(=O)O)c4cc(O)cc(O)c4-c4cc3ccc4O)[C@@H](O[C@H]3C[C@](C)(N)[C@H](O)[C@@H](C)O3)c3ccc(cc3)Oc3cc2cc(c3O[C@H]2O[C@@H](CO)[C@@H](O)[C@H](O)[C@@H]2O[C@H]2C[C@](C)(N)[C@H](O)[C@@H](C)O2)Oc2ccc(cc2)[C@@H]1O (stereo partly drawn) [Compound A82846C, A82846C, reference compound] | – | 0.5 µg/mL (≈ 0.328 µM) | ≤ .06 µg/mL | 1 µg/mL (≈ 0.656 µM) | – | 0.5 µg/mL (≈ 0.328 µM) | – | 16 µg/mL (≈ 10.5 µM) | 0.5 µg/mL (≈ 0.328 µM) | 0.5 µg/mL (≈ 0.328 µM) | – | 1.3 mg/kg/2 | 1.5 mg/kg/2 | – | 353 µg/mL | – | 0.5 µg/mL (≈ 0.328 µM) | 1 µg/mL (≈ 0.656 µM) | 2 µg/mL (≈ 1.31 µM) | ≤ .06 µg/mL | MIC [12]: ≤ .06 µg/mL; MIC [13]: 0.5 µg/mL (≈ 0.328 µM) |
| CNC(CC(C)C)C(=O)NC1C(=O)NC(CC(N)=O)C(=O)NC2C(=O)NC3C(=O)NC(C(=O)NC(C(=O)O)c4cc(O)cc(O)c4-c4cc3ccc4O)C(OC3CC(C)(N)C(O)C(C)O3)c3ccc(c(Cl)c3)Oc3cc2cc(c3OC2OC(CO)C(O)C(O)C2OC2CC(C)(NCc3ccc(Oc4ccc([N+](=O)[O-])cc4)cc3)C(O)C(C)O2)Oc2ccc(cc2Cl)C1O (stereo not drawn) [Compound 57] | ≤ 0.06 µg/mL | 0.5 µg/mL (≈ 0.275 µM) | 0.5 µg/mL (≈ 0.275 µM) | – | ≤ 0.06 µg/mL | ≤ 0.06 µg/mL | ≤ 0.06 µg/mL | 0.5 µg/mL (≈ 0.275 µM) | ≤ 0.06 µg/mL | 2 µg/mL (≈ 1.1 µM) | 0.5 µg/mL (≈ 0.275 µM) | 0.041 mg/kg/2 | 0.054 mg/kg/2 | 0.046 mg/kg/2 | 0.35 µg/mL | 0.041 µg/mL | 0.5 µg/mL (≈ 0.275 µM) | 8 µg/mL (≈ 4.4 µM) | 1 µg/mL (≈ 0.55 µM) | ≤ 0.06 µg/mL | MIC [18]: ≤ 0.06 µg/mL; MIC [19]: ≤ 0.06 µg/mL |
